The target of experiment [1] is T1, α-Glucosidase (EC 3.2.1.20) (Saccharomyces cerevisiae, UniProt P53341).
T1 construct: purchased Sigma Chemical Co. (St. Louis, MO, USA)
In words: biochemical. The conditions noted are these: for inhibition at 10 µM / inhibition at 25 µM / inhibition at 50 µM / inhibition at 100 µM / inhibition at 1 µM / inhibition at 2.5 µM / inhibition at 5 µM: read-out: Inhibition rate (%). How it is done: Five isolated compounds were examined to assess their inhibitory effect on α-glucosidase at concentrations ranging from 1 to 100 μM. […]
Optical values were conducted on a Shimadzu UV-1800 spectrophotometer (Shimadzu Pte., Ltd, Singapore). IR spectra were measured with a Shimadzu IR-408 infrared spectrometer (Shimadzu Pte., Ltd, Singapore). NMR spectra were acquired on a Bruker Avance III 500 spectrometer Bruker BioSpin AG, Bangkok, (Thailand), with chemical shifts (δ) referenced to deuterated solvents. HR-ESI-MS data were obtained on Bruker micrOTOFQII mass spectrometer (Bruker Singapore Pte., Ltd, Singapore). Column chromatography utilized silica gel 60 (0.06–0.2 mm; Scharlau, Barcelona, Spain) and LiChroprep RP-18 (40–63 μm; Merck KGaA, Darmstadt, Germany). Thin-layer chromatography (TLC) employed Kieselgel 60 F254 or RP-18 F254 plates from Merck KGaA (Darmstadt, Germany). α-Glucosidase (EC 3.2.1.20), derived from Saccharomyces cerevisiae (750 UN), along with p-nitrophenyl-α-D-glucopyranoside, was procured from Sigma Chemical Co. (St. Louis, MO, USA). […] All other chemicals and solvents were of the highest purity or analytical grade.
The inhibitory activity of α-glucosidase was assessed using a modified method based on Kurihara et al.[37] The reaction was initiated by adding 50 μL of 1.5 mM p-nitrophenyl-α-D-glucopyranoside and 50 μL of 0.1 U mL^−1 α-glucosidase in 0.01 M phosphate buffer (pH 7.0) to 625 μL of sample solution. The reaction was conducted at 37 °C for 30 minutes and terminated with 0.1 M Na2CO3. Enzymatic activity was quantified by measuring absorbance at a wavelength of 401 nm. One unit of α-glucosidase activity was defined as the amount of enzyme that liberates […] p-nitrophenol per minute. The IC50 value represented the inhibitor concentration that suppressed 50% of enzyme activity.

The target in experiment [2] is T1, α-Glucosidase (EC 3.2.1.20). The experiment in a line: biochemical. Conditions: read-out: Inhibition rate (%).
Where [3] appears, read: α-glucosidase inhibition, 37 °C, 30 minutes, pH 7.0, read-out: IC50.

Read-outs that look alike come from different tables or passages of the source.

T1 sequence (P53341 whole entry): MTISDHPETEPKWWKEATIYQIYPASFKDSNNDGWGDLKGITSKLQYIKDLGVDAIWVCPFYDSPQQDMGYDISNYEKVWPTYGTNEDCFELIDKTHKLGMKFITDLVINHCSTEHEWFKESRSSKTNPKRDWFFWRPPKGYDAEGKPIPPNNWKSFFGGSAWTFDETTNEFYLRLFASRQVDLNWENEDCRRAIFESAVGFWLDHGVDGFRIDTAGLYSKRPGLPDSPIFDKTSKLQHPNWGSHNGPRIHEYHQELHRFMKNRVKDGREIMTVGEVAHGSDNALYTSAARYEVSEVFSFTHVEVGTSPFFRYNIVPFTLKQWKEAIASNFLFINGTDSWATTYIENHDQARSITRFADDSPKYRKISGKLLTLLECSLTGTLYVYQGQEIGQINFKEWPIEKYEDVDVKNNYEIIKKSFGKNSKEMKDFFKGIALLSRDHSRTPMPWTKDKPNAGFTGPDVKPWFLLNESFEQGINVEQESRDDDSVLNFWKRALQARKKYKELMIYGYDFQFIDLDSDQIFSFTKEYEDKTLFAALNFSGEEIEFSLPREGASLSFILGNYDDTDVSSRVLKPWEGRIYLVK

For the molecule `C=C1CCC2C(C)(C)CCCC2(C)C1CC=C(COC(C)=O)C(=O)O` (centres unmarked) [CZ1, zedolabdin A], in experiment [1], the IC50 stood at 14.1 µM, the inhibition at 10 µM worked out at 29.5 ± 1.8%, the inhibition at 25 µM was 81.4 ± 0.5% and the inhibition at 50 µM came out at 96.2 ± 0.4%. Also, the inhibition at 100 µM in experiment [1] amounted to 98.8 ± 0.4%.

For `C=C1CCC2C(C)(C)CCCC2(C)C1CC=C(CO)C(=O)O` (centres unmarked) [CZ2, (E)-14-hydroxy-15-norlabda-8(17),12-dien-16-oic acid], in experiment [1], inhibition was half-maximal at 25.5 µM (IC50), the inhibition at 10 µM amounted to 24.6 ± 4.1%, the inhibition at 25 µM stood at 46.3 ± 3.1% and the inhibition at 50 µM is 72.4 ± 2%. Also, the inhibition at 100 µM in experiment [1] was found to be 99.1 ± 2%.

Consider `C=C1CC[C@H]2C(C)(C)CCC[C@]2(C)[C@H]1/C=C/C1=C(O)COC1=O` [CZ3, zerumin], for which, in experiment [1], the inhibition at 1 µM worked out at 6.9 ± 4%, the inhibition at 2.5 µM is 20.8 ± 3.6%, the inhibition at 5 µM worked out at 35.2 ± 1.9% and the inhibition at 10 µM is 73.4 ± 2.3%. Further, in experiment [1] (setting [3]), the IC50 is 6.2 µM.

Consider `C=C1CC[C@H]2C(C)(C)CCC[C@]2(C)[C@H]1CCC1=CC(O)OC1=O` (some centres unmarked) [CZ4, coronarin C], for which, in experiment [1], the inhibition at 1 µM was found to be 13.7 ± 5.4%, the inhibition at 2.5 µM stood at 34 ± 0.9%, the inhibition at 5 µM turned out to be 81 ± 1.7% and the inhibition at 10 µM is 95.4 ± 1.5%. Further, the IC50 in experiment [1] (setting [3]) amounted to 3 µM.

With `C=C1CCC2C(C)(C)CCCC2(C)C1C=CC(=O)O` (centres unmarked) [CZ5, (E)-14,15,16-trinorlabda-8(17),11-dien-13-oic acid], in experiment [1], the midpoint of inhibition, the IC50, lay at 37.6 µM; the inhibition at 10 µM worked out at 3.5 ± 3.6%; the inhibition at 25 µM was determined as 16.6 ± 3.8%; the inhibition at 50 µM stood at 75.8 ± 4.4%. In addition, in experiment [1], the inhibition at 100 µM is 99.8 ± 0.2%.

Consider `C[C@H]1O[C@H](O[C@H]2[C@H](O)[C@@H](O)[C@@H](O[C@H]3[C@H](O)[C@@H](O)C(O)O[C@@H]3CO)O[C@@H]2CO)[C@H](O)[C@@H](O)[C@@H]1N[C@H]1C=C(CO)[C@@H](O)[C@H](O)[C@H]1O` (some centres unmarked) [PC, acarbose, reference compound], for which, in experiment [1], the inhibition at 25 µM came out at 8.6 ± 1.1%, the inhibition at 50 µM is 19.7 ± 1.3% and the inhibition at 100 µM came out at 32.1 ± 1.7%. The inhibition at 250 µM in experiment [2] came to 66 ± 1.2%.
